The values that follow are results of earlier work, collected in US4661473A, “Renin inhibitors containing peptide isosteres” (Merck & Co., Inc., priority 1984, dated 1987).

The test system of this data set is hog renin. To be noted: after the injection of hog renin into nephrectomized rats; Gross et al. 1971.

For the substance Pepstatin, the “blood pressure in vivo” value is “reduce blood pressure in vivo”.
